Measurements from patent publication US6214836A, “Water soluble analogues of 20(S)-camptothecin” (Dr. Reddy's Research Foundation, priority 1996, dated 2001).
Where two headings read alike, the source gives them in different places.

Columns and labels:
[1] = tested on: Human Serum Albumin (HSA); details: in the presence of HSA at 37° C.; vs 20(S) camptothecin and 9-aminocamptothecin; cited from earlier work
[2] = tested on: NCI's 60 human tumor cell line; assay: NCI 60 human tumor cell line assay (mean, Table 1); assay type: cell-based; details: read-out: IC 50 (mean value of the minimum drug concentration required to produce 50% cell growth inhibition (GI50))
Experimental: (§1) Inoculates were allowed a preincubation period of 24 h at 37° C. for stabilization. […] Readings are transferred to a microcomputer and fmal reports are generated using especially developed software.
^a IC 50 = the mean value of the minimum drug concentration (μm) of
NCI's 60 human tumor cell line assay.

topoisomerase I = details: cited from earlier work
[3] = vs 20(RS)-camptothecin of the formula 7; cited from earlier work
humans = details: cited from earlier work
LOX IMVI = assay: 50% growth inhibition, MELANOMA panel; assay type: cell-based; details: Homo sapiens, read-out: 50% Growth Inhibition (GI 50), 48 h
Experimental: as §1

M 14 = assay: 50% growth inhibition, MELANOMA panel; assay type: cell-based; details: Homo sapiens, M14, read-out: 50% Growth Inhibition (GI 50); M 14, melanoma; 48 h
Experimental: as §1

UACC 62 = assay: 50% growth inhibition, MELANOMA panel; assay type: cell-based; details: Homo sapiens, read-out: 50% Growth Inhibition (GI 50); UACC 62, melanoma; 48 h
Experimental: as §1

SW 620 = assay: 50% growth inhibition, COLON panel; assay type: cell-based; details: Homo sapiens, read-out: 50% Growth Inhibition (GI 50); SW 620, colon; 48 h
Experimental: as §1

HT 29 = assay: 50% growth inhibition, COLON panel; assay type: cell-based; details: Homo sapiens, read-out: 50% Growth Inhibition (GI 50); HT 29, colon; 48 h
Experimental: as §1

HCT 116 = assay: 50% growth inhibition, COLON panel; assay type: cell-based; details: Homo sapiens, read-out: 50% Growth Inhibition (GI 50); HCT 116, colon; 48 h
Experimental: as §1

786-O = assay: 50% growth inhibition, RENAL panel; assay type: cell-based; details: Homo sapiens, 786-0, read-out: 50% Growth Inhibition (GI 50), 48 h
Experimental: as §1

ACHN = assay: 50% growth inhibition, RENAL panel; assay type: cell-based; details: Homo sapiens, read-out: 50% Growth Inhibition (GI 50), 48 h
Experimental: as §1

CAKI-1 = assay: 50% growth inhibition, RENAL panel; assay type: cell-based; details: Homo sapiens, read-out: 50% Growth Inhibition (GI 50); CAKI-1, renal; 48 h
Experimental: as §1

H 23 = assay: 50% growth inhibition, NSLC panel; assay type: cell-based; details: Homo sapiens, NCI-H23, read-out: 50% Growth Inhibition (GI 50); H 23, NSLC; 48 h
Experimental: as §1

HOP 62 = assay: 50% growth inhibition, NSLC panel; assay type: cell-based; details: Homo sapiens, read-out: 50% Growth Inhibition (GI 50); HOP 62, NSLC; 48 h
Experimental: as §1

H 460 = assay: 50% growth inhibition, NSLC panel; assay type: cell-based; details: Homo sapiens, NCI-H460, read-out: 50% Growth Inhibition (GI 50); H 460, NSLC; 48 h
Experimental: as §1

HL 60 = assay: 50% growth inhibition, […] panel; assay type: cell-based; details: Homo sapiens, read-out: 50% Growth Inhibition (GI 50); HL 60, leukemia; 48 h
Experimental: as §1

SR = assay: 50% growth inhibition, […] panel; assay type: cell-based; details: Homo sapiens, read-out: 50% Growth Inhibition (GI 50), leukemia, 48 h
Experimental: as §1

CCRF-CEM = assay: 50% growth inhibition, […] panel; assay type: cell-based; details: Homo sapiens, read-out: 50% Growth Inhibition (GI 50), leukemia, 48 h
Experimental: as §1

SF 295 = assay: 50% growth inhibition, CNS panel; assay type: cell-based; details: Homo sapiens, read-out: 50% Growth Inhibition (GI 50); SF 295, CNS; 48 h
Experimental: as §1

SF-539 = assay: 50% growth inhibition, CNS panel; assay type: cell-based; details: Homo sapiens, read-out: 50% Growth Inhibition (GI 50); SF-539, CNS; 48 h
Experimental: as §1

MCF7/ADR = assay: 50% growth inhibition, BREAST panel; assay type: cell-based; details: Homo sapiens, NCI/ADR-RES, read-out: 50% Growth Inhibition (GI 50), 48 h
Experimental: as §1

MCF-7 = assay: 50% growth inhibition, BREAST panel; assay type: cell-based; details: Homo sapiens, MCF7, read-out: 50% Growth Inhibition (GI 50); MCF-7, breast; 48 h
Experimental: as §1

T 47D = assay: 50% growth inhibition, BREAST panel; assay type: cell-based; details: Homo sapiens, T47D, read-out: 50% Growth Inhibition (GI 50), 48 h
Experimental: as §1

H 522 = assay: 50% growth inhibition, NSLC panel; assay type: cell-based; details: Homo sapiens, NCI-H522, read-out: 50% Growth Inhibition (GI 50); H 522, NSLC; 48 h
Experimental: as §1

MOLT-4 = assay: 50% growth inhibition, […] panel; assay type: cell-based; details: Homo sapiens, read-out: 50% Growth Inhibition (GI 50); MOLT-4, leukemia; 48 h
Experimental: as §1

SNB-19 = assay: 50% growth inhibition, CNS panel; assay type: cell-based; details: Homo sapiens, read-out: 50% Growth Inhibition (GI 50); SNB-19, CNS; 48 h
Experimental: as §1

SF-268 = assay: 50% growth inhibition, CNS panel; assay type: cell-based; details: Homo sapiens, SF-268, 48 h, read-out: 50% Growth Inhibition (GI 50)
Experimental: as §1

Question: For CCc1c2c(nc3ccc(OC(=O)N4CCC(N5CCCCC5)CC4)cc13)-c1cc3c(c(=O)n1C2)COC(=O)[C@]3(O)CC [CPT-11], which “percentage (%) of lactone form at equilibrium (in words)” value (shortened to “percentage (%) of lactone form”) [1] is on record?
Answer: higher percentage (%) of lactone form at equilibrium

Question: With CC[C@@]1(O)C(=O)OCc2c1cc1n(c2=O)C(CC(=O)OC)c2cc3c([N+](=O)[O-])cccc3nc2-1 (stereo partly drawn) [Example 5, 9-Nitro-5-carbomethoxymethylcamptothecin] as the compound, how does the IC50 ([2]; Homo sapiens, 48 h) read?
Answer: 15.8 µM

Question: With C=C1C(=O)OCc2c1cc1n(c2=O)Cc2c-1nc1ccc(O)cc1c2CC [formula 8] as the compound, how does the “topoisomerase I inhibition (in words)” value (topoisomerase I) read?
Answer: potent camptothecin like inhibition of topoisomerase I activity

Question: Which “in vivo antitumor activity (in words)” value [3] does the source give for CCc1c2c(nc3ccc(OC)cc13)-c1cc3c(c(=O)n1C2)COC(=O)[C@]3(N)CC [formula 6] here?
Answer: increased in vivo antitumor activity than 20(RS)-camptothecin

Question: Which “topoisomerase I inhibition (in words)” value (topoisomerase I) does the source give for CC[C@@]1(O)C(=O)OCc2c1cc1n(c2=O)Cc2cc3ccccc3nc2-1 [20(S)-Camptothecin] here?
Answer: inhibitor of topoisomerise I

Question: What about the “toxicity (in words)” value (humans) of the same compound?
Answer: high toxicity problems

Question: What about the “side effects on humans (in words)” value (humans; humans) of the same compound?
Answer: unacceptable side effects on humans

Question: Which “percentage (%) of lactone form” value [1] does the source give for CC[C@@]1(O)C(=O)OCc2c1cc1n(c2=O)Cc2cc3c(CN(C)C)c(O)ccc3nc2-1 [Topotecan, topotecan] here?
Answer: higher percentage (%) of lactone form at equilibrium

Question: What does the source list for CC[C@@]1(O)C(=O)OCc2c1cc1n(c2=O)C(CC(C)=O)c2cc3c([N+](=O)[O-])cccc3nc2-1 (stereo partly drawn) [Example 4, 9-nitro-5-(2'-oxopropyl)camptothecin]?
Answer: GI50 (LOX IMVI): 0.38 µM; GI50 (M 14): 0.3 µM; GI50 (UACC 62): 0.33 µM; GI50 (SW 620): 0.07 µM; GI50 (HT 29): 1.17 µM; GI50 (HCT 116): 0.57 µM; GI50 (786-O): 0.3 µM; GI50 (ACHN): 0.21 µM; GI50 (CAKI-1): 0.21 µM; IC50 ([2]; Homo sapiens, 48 h): 1 µM; GI50 (H 23): 0.24 µM; GI50 (HOP 62): 0.26 µM; GI50 (H 460): 0.1 µM; GI50 (HL 60): 0.23 µM; GI50 (SR): 0.02 µM; GI50 (CCRF-CEM): 0.09 µM; GI50 (SF 295): 0.19 µM; GI50 (SF-539): 0.26 µM

Question: For CCc1c2c(nc3ccc(O)cc13)-c1cc3c(c(=O)n1C2)COC(=O)[C@]3(O)CC [SN-38, 7-ethyl-10-hydroxycamptothecin], which “percentage (%) of lactone form” value [1] is on record?
Answer: higher percentage (%) of lactone form at equilibrium

Question: Which IC50 ([2]; Homo sapiens, 48 h) does the source give for CC[C@@]1(O)C(=O)OCc2c1cc1n(c2=O)C(CC(=O)OC)c2cc3cc(O)ccc3nc2-1 (stereo partly drawn) [Example 3, 10-hydroxy-5-carbomethoxymethylcamptothecin] here?
Answer: 4.89 µM

Question: Which GI50 (SW 620) does the source give for CC[C@@]1(O)C(=O)OCc2c1cc1n(c2=O)C(CC(C)=O)c2cc3ccccc3nc2-1 (stereo partly drawn) [Example 2, 5-(2'-oxopropyl)camptothecin] here?
Answer: 6.02 µM

Question: What about the GI50 (HCT 116) of the same compound?
Answer: 5.62 µM

Question: And the GI50 (MCF7/ADR)?
Answer: 1.86 µM

Question: What about the GI50 (MCF-7) of the same compound?
Answer: 3.63 µM

Question: And the GI50 (T 47D)?
Answer: 2.63 µM

Question: What about the GI50 (786-O) of the same compound?
Answer: 2.95 µM

Question: What about the GI50 (ACHN) of the same compound?
Answer: 2.88 µM

Question: What about the GI50 (CAKI-1) of the same compound?
Answer: 2.63 µM

Question: What about the IC50 ([2]; Homo sapiens, 48 h) of the same compound?
Answer: 8.31 µM

Question: And the GI50 (HOP 62)?
Answer: 4.46 µM

Question: What about the GI50 (H 522) of the same compound?
Answer: 3.98 µM

Question: And the GI50 (H 460)?
Answer: 1.12 µM

Question: And the GI50 (SR)?
Answer: 0.18 µM

Question: What about the GI50 (MOLT-4) of the same compound?
Answer: 0.77 µM

Question: What about the GI50 (CCRF-CEM) of the same compound?
Answer: 0.38 µM

Question: What about the GI50 (SNB-19) of the same compound?
Answer: 6.45 µM

Question: And the GI50 (SF-539)?
Answer: 3.89 µM

Question: What about the GI50 (SF-268) of the same compound?
Answer: 4.26 µM

Question: For CC[C@@]1(O)C(=O)OCc2c1cc1n(c2=O)C(CC(=O)OC)c2cc3ccccc3nc2-1 (stereo partly drawn) [Example 1, 5-Carbomethoxymethylcamptothecin], which IC50 ([2]; Homo sapiens, 48 h) is on record?
Answer: 16.2 µM

Question: With CC[C@@]1(O)C(=O)OCc2c1cc1n(c2=O)C(CC(=O)OC)c2cc3c(OC)cccc3nc2-1 (stereo partly drawn) [Example 10, 9-methoxy-5-carbomethoxymethylcamptothecin] as the compound, how does the IC50 ([2]; mean over NCI's 60 human tumor cell lines, 48 h incubation) read?
Answer: 16.2 µM
